# How the values were obtained:
# Caenorhabditis elegans [1] = assay: Toxicity in L1 stage Caenorhabditis elegans N2 assessed as viability and reproduction at 50 uM; type: organism-based; conditions: in vivo
# Caenorhabditis elegans [2] = assay: Toxicity in L1 stage Caenorhabditis elegans N2 assessed as viability and reproduction at 10 uM; type: organism-based; conditions: in vivo
# Caenorhabditis elegans [3] = assay: In vivo inhibition of BK channel in L1 stage Caenorhabditis elegans N2 assessed as increase in reversals at 1 uM; type: organism-based
# MDA-MB-468 = assay: Cytotoxicity against human MDA-MB-468 cells assessed as growth inhibition at 10 uM; type: functional; conditions: read-out: GI
# T47D = assay: Cytotoxicity against human T47D cells assessed as growth inhibition at 10 uM; type: functional; conditions: read-out: GI
# BT-549 = assay: Cytotoxicity against human BT549 cells assessed as growth inhibition at 10 uM; type: functional; conditions: read-out: GI
# [4] = Cytotoxicity against human Hs578T cells assessed as growth inhibition at 10 uM; type: functional; conditions: Hs-578T, read-out: GI
# MDA-MB-231 [5] = assay: Cytotoxicity against human MDA-MB-231 cells assessed as growth inhibition at 10 uM; type: functional; conditions: read-out: GI
# DU-145 = assay: Cytotoxicity against human DU145 cells assessed as growth inhibition at 10 uM; type: functional; conditions: read-out: GI
# PC-3 = assay: Cytotoxicity against human PC3 cells assessed as growth inhibition at 10 uM; type: functional; conditions: read-out: GI
# [6] = Cytotoxicity against human UO31 cells assessed as growth inhibition at 10 uM; type: functional; conditions: UO-31, read-out: GI
# TK-10 = assay: Cytotoxicity against human TK10 cells assessed as growth inhibition at 10 uM; type: functional; conditions: read-out: GI
# SN12C = assay: Cytotoxicity against human SN12C cells assessed as growth inhibition at 10 uM; type: functional; conditions: read-out: GI
# RXF 393 = assay: Cytotoxicity against human RXF393 cells assessed as growth inhibition at 10 uM; type: functional; conditions: read-out: GI
# ACHN = assay: Cytotoxicity against human ACHN cells assessed as growth inhibition at 10 uM; type: functional; conditions: read-out: GI
# 786-0 = assay: Cytotoxicity against human 786-0 cells assessed as growth inhibition at 10 uM; type: functional; conditions: read-out: GI
# SK-OV-3 = assay: Cytotoxicity against human SKOV3 cells assessed as growth inhibition at 10 uM; type: functional; conditions: read-out: GI
# [7] = Cytotoxicity against human NCI-ADR-RES cells assessed as growth inhibition at 10 uM; type: functional; conditions: read-out: GI
# [8] = Cytotoxicity against human OVCAR8 cells assessed as growth inhibition at 10 uM; type: functional; conditions: OVCAR-8, read-out: GI
# [9] = Cytotoxicity against human OVCAR5 cells assessed as growth inhibition at 10 uM; type: functional; conditions: OVCAR-5, read-out: GI
# [10] = Cytotoxicity against human OVCAR4 cells assessed as growth inhibition at 10 uM; type: functional; conditions: OVCAR-4, read-out: GI
# [11] = Cytotoxicity against human OVCAR3 cells assessed as growth inhibition at 10 uM; type: functional; conditions: OVCAR-3, read-out: GI
# IGROV-1 = assay: Cytotoxicity against human IGROV1 cells assessed as growth inhibition at 10 uM; type: functional; conditions: read-out: GI
# [12] = Cytotoxicity against human UACC62 cells assessed as growth inhibition at 10 uM; type: functional; conditions: UACC-62, read-out: GI
# [13] = Cytotoxicity against human UACC257 cells assessed as growth inhibition at 10 uM; type: functional; conditions: UACC-257, read-out: GI
# SK-MEL-5 = assay: Cytotoxicity against human SK-MEL-5 cells assessed as growth inhibition at 10 uM; type: functional; conditions: read-out: GI
# SK-MEL-2 = assay: Cytotoxicity against human SK-MEL-2 cells assessed as growth inhibition at 10 uM; type: functional; conditions: read-out: GI
# SK-MEL-28 = assay: Cytotoxicity against human SK-MEL-28 cells assessed as growth inhibition at 10 uM; type: functional; conditions: read-out: GI
# MDA-MB-435 = assay: Cytotoxicity against human MDA-MB-435 cells assessed as growth inhibition at 10 uM; type: functional; conditions: read-out: GI
# Malme-3M = assay: Cytotoxicity against human MALME-3M cells assessed as growth inhibition at 10 uM; type: functional; conditions: read-out: GI
# M14 = assay: Cytotoxicity against human M14 cells assessed as growth inhibition at 10 uM; type: functional; conditions: read-out: GI
# LOX IMVI = assay: Cytotoxicity against human LOXIMVI cells assessed as growth inhibition at 10 uM; type: functional; conditions: read-out: GI
# U-251 = assay: Cytotoxicity against human U251 cells assessed as growth inhibition at 10 uM; type: functional; conditions: read-out: GI
# SNB-75 = assay: Cytotoxicity against human SNB75 cells assessed as growth inhibition at 10 uM; type: functional; conditions: read-out: GI
# SNB-19 = assay: Cytotoxicity against human SNB19 cells assessed as growth inhibition at 10 uM; type: functional; conditions: read-out: GI
# SF-539 = assay: Cytotoxicity against human SF539 cells assessed as growth inhibition at 10 uM; type: functional; conditions: read-out: GI
# SF-268 = assay: Cytotoxicity against human SF268 cells assessed as growth inhibition at 10 uM; type: functional; conditions: read-out: GI
# SW-620 = assay: Cytotoxicity against human SW620 cells assessed as growth inhibition at 10 uM; type: functional; conditions: read-out: GI
# KM12 = assay: Cytotoxicity against human KM12 cells assessed as growth inhibition at 10 uM; type: functional; conditions: read-out: GI
# HT-29 = assay: Cytotoxicity against human HT-29 cells assessed as growth inhibition at 10 uM; type: functional; conditions: read-out: GI
# [14] = Cytotoxicity against human HCT15 cells assessed as growth inhibition at 10 uM; type: functional; conditions: HCT-15, read-out: GI
# HCT-116 = assay: Cytotoxicity against human HCT116 cells assessed as growth inhibition at 10 uM; type: functional; conditions: read-out: GI
# HCC 2998 = assay: Cytotoxicity against human HCC2998 cells assessed as growth inhibition at 10 uM; type: functional; conditions: read-out: GI
# COLO 205 = assay: Cytotoxicity against human COLO205 cells assessed as growth inhibition at 10 uM; type: functional; conditions: read-out: GI
# NCI-H522 = assay: Cytotoxicity against human NCI-H522 cells assessed as growth inhibition at 10 uM; type: functional; conditions: read-out: GI
# NCI-H460 = assay: Cytotoxicity against human NCI-H460 cells assessed as growth inhibition at 10 uM; type: functional; conditions: read-out: GI
# NCI-H322M = assay: Cytotoxicity against human NCI-H322M cells assessed as growth inhibition at 10 uM; type: functional; conditions: read-out: GI
# NCI-H23 = assay: Cytotoxicity against human NCI-H23 cells assessed as growth inhibition at 10 uM; type: functional; conditions: read-out: GI
# NCI-H226 = assay: Cytotoxicity against human NCI-H226 cells assessed as growth inhibition at 10 uM; type: functional; conditions: read-out: GI
# HOP-62 = assay: Cytotoxicity against human HOP62 cells assessed as growth inhibition at 10 uM; type: functional; conditions: read-out: GI
# A549 = assay: Cytotoxicity against human A549 cells assessed as growth inhibition at 10 uM; type: functional; conditions: read-out: GI
# [15] = Cytotoxicity against human EKVX cells assessed as growth inhibition at 10 uM; type: functional; conditions: read-out: GI
# SR = assay: Cytotoxicity against human SR cells assessed as growth inhibition at 10 uM; type: functional; conditions: read-out: GI
# MOLT-4 = assay: Cytotoxicity against human MOLT4 cells assessed as growth inhibition at 10 uM; type: functional; conditions: read-out: GI
# RPMI-8226 = assay: Cytotoxicity against human RPMI8226 cells assessed as growth inhibition at 10 uM; type: functional; conditions: read-out: GI
# K562 = assay: Cytotoxicity against human K562 cells assessed as growth inhibition at 10 uM; type: functional; conditions: read-out: GI
# CCRF-CEM = assay: Cytotoxicity against human CCRF-CEM cells assessed as growth inhibition at 10 uM; type: functional; conditions: read-out: GI
# HL-60(TB) = assay: Cytotoxicity against human HL-60(TB) cells assessed as growth inhibition at 10 uM; type: functional; conditions: read-out: GI
# MDA-MB-231 [16] = assay: Antiinvasive activity against human MDA-MB-231 cells assessed as inhibition of cell invasion at 15 uM after 24 hrs by BME Cell invasion assay kit; type: functional; conditions: MDA-MB-231, 24 h
# MDA-MB-231 [17] = assay: Antimigratory activity in human MDA-MB-231 cells after 24 hrs by wound healing assay; type: functional, cell-based; conditions: MDA-MB-231, 24 h
# MDA-MB-231 [18] = assay: Antiproliferative activity against human MDA-MB-231 cells after 72 hrs by MTT assay; type: functional, cell-based; conditions: MDA-MB-231, 72 h
# MCF7 = assay: Antiproliferative activity against human MCF7 cells after 72 hrs by MTT assay; type: functional, cell-based; conditions: MCF7, 72 h
smiles,measurement,setting,value
C=C(C)[C@H]1O[C@H]2CC[C@@]3(C)[C@@](O)(CC[C@H]4[C@@H]5OC(C)(C)[C@H]6C[C@@H]7C(=C)Cc8c(Cl)cc9[nH]c(c5c9c8[C@@]76O)[C@@]43C)[C@]23O[C@@H]3[C@H]1O [PENITREM A],Activity,Caenorhabditis elegans [1],Non-toxic
same,Activity,Caenorhabditis elegans [2],Non-toxic
same,Activity,Caenorhabditis elegans [3],Toxic
C=C1Cc2ccc3[nH]c4c5c3c2[C@H]2[C@@H]1C[C@@H]2C(C)(C)O[C@H]5[C@@H]1CC[C@@]2(O)[C@@]35O[C@@H]3[C@@H](O)[C@@H](C(=C)C)O[C@H]5CC[C@]2(C)[C@@]41C [PENITREM B],inhibition of growth at 10 µM,MDA-MB-468,60.7%
same,inhibition of growth at 10 µM,T47D,64.5%
same,inhibition of growth at 10 µM,BT-549,63.7%
same,inhibition of growth at 10 µM,[4],42.4%
same,inhibition of growth at 10 µM,MDA-MB-231 [5],77.8%
same,inhibition of growth at 10 µM,DU-145,64.4%
same,inhibition of growth at 10 µM,PC-3,27.8%
same,inhibition of growth at 10 µM,[6],11.5%
same,inhibition of growth at 10 µM,TK-10,84%
same,inhibition of growth at 10 µM,SN12C,38.6%
same,inhibition of growth at 10 µM,RXF 393,70.3%
same,inhibition of growth at 10 µM,ACHN,59.3%
same,inhibition of growth at 10 µM,786-0,70.3%
same,inhibition of growth at 10 µM,SK-OV-3,90.3%
same,inhibition of growth at 10 µM,[7],56.7%
same,inhibition of growth at 10 µM,[8],71.4%
same,inhibition of growth at 10 µM,[9],102%
same,inhibition of growth at 10 µM,[10],66.3%
same,inhibition of growth at 10 µM,[11],48.8%
same,inhibition of growth at 10 µM,IGROV-1,54.9%
same,inhibition of growth at 10 µM,[12],76.8%
same,inhibition of growth at 10 µM,[13],44.7%
same,inhibition of growth at 10 µM,SK-MEL-5,61.1%
same,inhibition of growth at 10 µM,SK-MEL-2,87.8%
same,inhibition of growth at 10 µM,SK-MEL-28,94.1%
same,inhibition of growth at 10 µM,MDA-MB-435,33.9%
same,inhibition of growth at 10 µM,Malme-3M,67.4%
same,inhibition of growth at 10 µM,M14,34.5%
same,inhibition of growth at 10 µM,LOX IMVI,39.5%
same,inhibition of growth at 10 µM,U-251,66.3%
same,inhibition of growth at 10 µM,SNB-75,68.2%
same,inhibition of growth at 10 µM,SNB-19,71.8%
same,inhibition of growth at 10 µM,SF-539,89.8%
same,inhibition of growth at 10 µM,SF-268,49.2%
same,inhibition of growth at 10 µM,SW-620,64.1%
same,inhibition of growth at 10 µM,KM12,40.9%
same,inhibition of growth at 10 µM,HT-29,38.4%
same,inhibition of growth at 10 µM,[14],74.3%
same,inhibition of growth at 10 µM,HCT-116,25.3%
same,inhibition of growth at 10 µM,HCC 2998,107%
same,inhibition of growth at 10 µM,COLO 205,76.5%
same,inhibition of growth at 10 µM,NCI-H522,78.5%
same,inhibition of growth at 10 µM,NCI-H460,50.6%
same,inhibition of growth at 10 µM,NCI-H322M,48.2%
same,inhibition of growth at 10 µM,NCI-H23,73.2%
same,inhibition of growth at 10 µM,NCI-H226,82.3%
same,inhibition of growth at 10 µM,HOP-62,94%
same,inhibition of growth at 10 µM,A549,43.1%
same,inhibition of growth at 10 µM,[15],63%
same,inhibition of growth at 10 µM,SR,45.9%
same,inhibition of growth at 10 µM,MOLT-4,36.4%
same,inhibition of growth at 10 µM,RPMI-8226,20.4%
same,inhibition of growth at 10 µM,K562,19.9%
same,inhibition of growth at 10 µM,CCRF-CEM,21.3%
same,inhibition of growth at 10 µM,HL-60(TB),29%
same,Activity,Caenorhabditis elegans [1],Non-toxic
same,Activity,Caenorhabditis elegans [2],Non-toxic
same,inhibition at 15 µM,MDA-MB-231 [16],40%
same,IC50,MDA-MB-231 [17],10.3 µM
same,IC50,MDA-MB-231 [18],13.7 µM
same,IC50,MCF7,5.5 µM
